Measurements as given in the supplement of paper PMC11451515.

System: SEM cells
Assay: cell viability relative to DMSO control; higher = less cytotoxic
Conditions: 48 h
Method in brief: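 Library compounds in DMSO were pin-dosed into 1536-well plates (5 μl) holding NOMO1 or SEM (500 cells/well) or P12-Ichikawa (1000 cells/well) leukemia cells, across an 11-point threefold series of 47 μM to 0.79 nM. Each cell line had been adapted for at least four passages in each medium. CellTiter-Glo One luminescence was read after 48 h at 37°C. Viability is the per-plate percentage relative to DMSO wells, with cell-free wells as background.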

[1] = HPLM + 10% dialyzed FBS, 0.000781 µM
[2] = HPLM + 10% dialyzed FBS, 0.00234 µM
[3] = HPLM + 10% dialyzed FBS, 0.00702 µM
[4] = HPLM + 10% dialyzed FBS, 0.0211 µM
[5] = HPLM + 10% dialyzed FBS, 0.0632 µM
[6] = HPLM + 10% dialyzed FBS, 0.19 µM
[7] = HPLM + 10% dialyzed FBS, 0.569 µM
[8] = HPLM + 10% dialyzed FBS, 1.71 µM
[9] = HPLM + 10% dialyzed FBS, 5.12 µM
[10] = HPLM + 10% dialyzed FBS, 15.4 µM
[11] = HPLM + 10% dialyzed FBS, 46.1 µM
[12] = RPMI 5 mM glucose + 10% FBS, 0.000781 µM
[13] = RPMI 5 mM glucose + 10% FBS, 0.00234 µM
[14] = RPMI 5 mM glucose + 10% FBS, 0.00702 µM
[15] = RPMI 5 mM glucose + 10% FBS, 0.0211 µM
[16] = RPMI 5 mM glucose + 10% FBS, 0.0632 µM
[17] = RPMI 5 mM glucose + 10% FBS, 0.19 µM
[18] = RPMI 5 mM glucose + 10% FBS, 0.569 µM
[19] = RPMI 5 mM glucose + 10% FBS, 1.71 µM
[20] = RPMI 5 mM glucose + 10% FBS, 5.12 µM
[21] = RPMI 5 mM glucose + 10% FBS, 15.4 µM
[22] = RPMI 5 mM glucose + 10% FBS, 46.1 µM
[23] = RPMI 5 mM glucose + 10% dialyzed FBS, 0.000781 µM
[24] = RPMI 5 mM glucose + 10% dialyzed FBS, 0.00234 µM
[25] = RPMI 5 mM glucose + 10% dialyzed FBS, 0.00702 µM
[26] = RPMI 5 mM glucose + 10% dialyzed FBS, 0.0211 µM
[27] = RPMI 5 mM glucose + 10% dialyzed FBS, 0.0632 µM
[28] = RPMI 5 mM glucose + 10% dialyzed FBS, 0.19 µM
[29] = RPMI 5 mM glucose + 10% dialyzed FBS, 0.569 µM
[30] = RPMI 5 mM glucose + 10% dialyzed FBS, 1.71 µM
[31] = RPMI 5 mM glucose + 10% dialyzed FBS, 5.12 µM
[32] = RPMI 5 mM glucose + 10% dialyzed FBS, 15.4 µM
[33] = RPMI 5 mM glucose + 10% dialyzed FBS, 46.1 µM

| SMILES | cell viability [1] | cell viability [2] | cell viability [3] | cell viability [4] | cell viability [5] | cell viability [6] | cell viability [7] | cell viability [8] | cell viability [9] | cell viability [10] | cell viability [11] | cell viability [12] | cell viability [13] | cell viability [14] | cell viability [15] | cell viability [16] | cell viability [17] | cell viability [18] | cell viability [19] | cell viability [20] | cell viability [21] | cell viability [22] | cell viability [23] | cell viability [24] | cell viability [25] | cell viability [26] | cell viability [27] | cell viability [28] | cell viability [29] | cell viability [30] | cell viability [31] | cell viability [32] | cell viability [33] |
| --- | --- | --- | --- | --- | --- | --- | --- | --- | --- | --- | --- | --- | --- | --- | --- | --- | --- | --- | --- | --- | --- | --- | --- | --- | --- | --- | --- | --- | --- | --- | --- | --- | --- |
| C[C@H](NC(=O)/C(C#N)=C/c1cccc(Br)n1)c1ccccc1 | 89.8% | 102% | 98.7% | 109% | 118% | 112% | 103% | 40.7% | 8.01% | 6.81% | 6.6% | 91.1% | 98.2% | 102% | 107% | 91.9% | 97.6% | 93.2% | 13% | 7.6% | 6.42% | 6.63% | 74.5% | 116% | 102% | 122% | 104% | 116% | 108% | 38.2% | 8.38% | 7.55% | 7.44% |
| CC1=NN(c2ccc(C)c(C)c2)C(=O)/C1=N/Nc1cccc(-c2cccc(C(=O)O)c2)c1O | 121% | 119% | 125% | 128% | 111% | 117% | 120% | 119% | 109% | 97.6% | 75.3% | 124% | 122% | 128% | 130% | 129% | 122% | 123% | 122% | 121% | 90.4% | 54.7% |  |  |  |  |  |  |  |  |  |  |  |
| C[C@H](O)[C@H]1[C@@H]2[C@H](C)C(=C(\N2C1=O)C(O)=O)/S[C@@H]3CN[C@H](CN[S+](N)([O-])=O)C3 | 116% | 121% | 122% | 130% | 132% | 113% | 108% | 108% | 100% | 108% | 111% | 124% | 123% | 136% | 128% | 132% | 115% | 125% | 112% | 120% | 118% | 109% |  |  |  |  |  |  |  |  |  |  |  |
| CC(C)n1c(/C=C/[C@H](O)C[C@H](O)CC(=O)O)c(-c2ccc(F)cc2)c2ccccc21 | 102% | 99.3% | 123% | 107% | 125% | 129% | 105% | 99.2% | 85% | 83.4% | 37.9% | 103% | 105% | 126% | 107% | 116% | 113% | 106% | 103% | 95.5% | 60.7% | 19% | 92.9% | 90.7% | 129% | 112% | 126% | 129% | 129% | 116% | 101% | 83.8% | 26.8% |
| CN1[C@@H]2CC[C@H]1CC(OC(=O)c1c[nH]c3ccccc13)C2 (some centres undefined) | 111% | 109% | 118% | 25.9% | 130% | 130% | 126% | 117% | 114% | 114% | 124% | 113% | 115% | 124% | 17.8% | 123% | 116% | 111% | 119% | 137% | 98.6% | 93.6% |  |  |  |  |  |  |  |  |  |  |  |
| CN\1C(=O)/C(=C(\N=C1N2CCCC[S+]2([O-])=O)C(=O)NCC3=CC=C(F)C=C3)O | 98.9% | 107% | 104% | 97.3% | 98.5% | 96.6% | 96.9% | 107% | 98.3% | 109% | 91.2% |  |  |  |  |  |  |  |  |  |  |  | 104% | 95.1% | 103% | 116% | 121% | 97.8% | 107% | 111% | 85.5% | 111% | 95.3% |
